Reference: ChEMBL document CHEMBL1152297, “Quantitative three dimensional structure linear interaction energy model of 5'-O-[N-(salicyl)sulfamoyl]adenosine and the aryl acid adenylating enzyme MbtA” (J Med Chem, 2008)
pKi: −log10 of the molar value.

What follows are molecules tested against T1, Salicyl-AMP ligase / salicyl-S-ArCP synthetase (Mycobacterium tuberculosis, UniProt P71716) (assay: Inhibition of Mycobacterium tuberculosis BAG RV143 MbtA expressed in Escherichia coli BL21 (DE3) assessed as ATP-[32P]PPi exchange by liquid scintillation counting). Details: read-out: Ki(app).
T1 sequence (P71716 whole entry): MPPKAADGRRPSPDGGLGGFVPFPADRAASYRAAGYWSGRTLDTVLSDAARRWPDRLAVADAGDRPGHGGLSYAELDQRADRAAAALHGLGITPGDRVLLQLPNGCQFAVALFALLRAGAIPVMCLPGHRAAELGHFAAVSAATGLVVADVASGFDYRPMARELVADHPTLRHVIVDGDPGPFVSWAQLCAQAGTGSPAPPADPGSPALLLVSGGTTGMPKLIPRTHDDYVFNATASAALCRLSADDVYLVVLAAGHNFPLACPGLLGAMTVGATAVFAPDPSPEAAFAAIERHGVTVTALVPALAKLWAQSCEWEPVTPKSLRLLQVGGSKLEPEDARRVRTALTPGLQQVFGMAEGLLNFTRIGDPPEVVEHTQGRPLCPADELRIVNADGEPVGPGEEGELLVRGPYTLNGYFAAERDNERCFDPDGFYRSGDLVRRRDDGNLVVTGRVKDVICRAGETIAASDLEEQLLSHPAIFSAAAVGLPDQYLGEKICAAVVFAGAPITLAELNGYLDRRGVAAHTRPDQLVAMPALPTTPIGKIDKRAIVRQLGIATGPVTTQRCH

| Compound | pKi |
| --- | --- |
| Nc1ncnc2c1ncn2[C@H]1C=C[C@@H](COS(=O)(=O)NC(=O)c2ccccc2O)C1 | 6.08 |
| Nc1ncnc2c1ncn2[C@@H]1O[C@H](COS(=O)(=O)CC(=O)c2ccccc2O)[C@@H](O)[C@H]1O | 5.48 |
| Nc1ncnc2c1ncn2[C@@H]1O[C@H](CNS(=O)(=O)/C=C/c2ccccc2O)[C@@H](O)[C@H]1O | 3.84 |
| Nc1ncnc2c1ncn2[C@@H]1O[C@H](COS(=O)(=O)NC(=O)c2ccccc2O)C[C@H]1O | 8.49 |
| Nc1ncnc2c1ncn2[C@@H]1C[C@H](COS(=O)(=O)NC(=O)c2ccccc2O)[C@@H](O)[C@H]1O | 8.64 |
| Nc1ncnc2c1ncn2[C@@H]1O[C@H](CNS(=O)(=O)NC(=O)c2ccccc2O)[C@@H](O)[C@H]1O | 8.42 |
| Nc1ncnc2c1ncn2[C@H]1CC[C@@H](COS(=O)(=O)NC(=O)c2ccccc2O)C1 | 7.21 |
| Nc1ncnc2c1ncn2[C@@H]1O[C@H](COS(=O)(=O)NCc2ccccc2O)[C@@H](O)[C@H]1O | 6.39 |
| Nc1ncnc2c1ncn2[C@H]1C[C@H](O)[C@@H](COS(=O)(=O)NC(=O)c2ccccc2O)O1 | 8.46 |
